Test results as given in the supplement of paper PMC10307832.

Experiments:
Test in all cases: relative viability (nuclei count vs DMSO), 5 days (fraction); higher = more cells survive
IMD-0354 + Luminespib = compound: O=C(Nc1cc(C(F)(F)F)cc(C(F)(F)F)c1)c1cc(Cl)ccc1O [IMD-0354] + CCNC(=O)c1noc(-c2cc(C(C)C)c(O)cc2O)c1-c1ccc(CN2CCOCC2)cc1 [Luminespib] (partner 0.01 µM)
How it was run: (§1)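 Values are medians from duplicate plates. Each reflects relative viability, defined as the nuclei count of treated wells over that of vehicle wells. Lung cancer cell lines in 1536-well plates were pin-tool dosed one day after seeding with one drug alone or with a fixed anchor-drug dose plus five library-drug doses (not always all listed) in √10 steps, then fixed, stained and imaged at 4× after 5 days.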

CX-5461 + OSI-027 = compound: Cc1cnc(CNC(=O)c2c(=O)c3ccc(N4CCCN(C)CC4)nc3n3c2sc2ccccc23)cn1 [CX-5461] + COc1cccc2cc(-c3nc([C@H]4CC[C@H](C(=O)O)CC4)n4ncnc(N)c34)[nH]c12 [OSI-027] (partner 0.5 µM)
How it was run: as §1

CX-5461 + Phenformin = compound: Cc1cnc(CNC(=O)c2c(=O)c3ccc(N4CCCN(C)CC4)nc3n3c2sc2ccccc23)cn1 [CX-5461] + N=C(N)NC(=N)NCCc1ccccc1 [Phenformin] (partner 250 µM)
How it was run: as §1

CX-5461 + Linsitinib = compound: Cc1cnc(CNC(=O)c2c(=O)c3ccc(N4CCCN(C)CC4)nc3n3c2sc2ccccc23)cn1 [CX-5461] + C[C@]1(O)C[C@@H](c2nc(-c3ccc4ccc(-c5ccccc5)nc4c3)c3c(N)nccn32)C1 [Linsitinib] (partner 1 µM)
How it was run: as §1

| Cell Line | relative viability (IMD-0354 + Luminespib; first compound 0.04 µM) | relative viability (IMD-0354 + Luminespib; first compound 0.1265 µM) | relative viability (IMD-0354 + Luminespib; first compound 0.4 µM) | relative viability (IMD-0354 + Luminespib; first compound 1.265 µM) | relative viability (IMD-0354 + Luminespib; first compound 4 µM) | relative viability (CX-5461 + OSI-027; first compound 0.01 µM) | relative viability (CX-5461 + OSI-027; first compound 0.03162 µM) | relative viability (CX-5461 + OSI-027; first compound 0.1 µM) | relative viability (CX-5461 + OSI-027; first compound 0.3162 µM) | relative viability (CX-5461 + OSI-027; first compound 1 µM) | relative viability (CX-5461 + Phenformin; first compound 0.01 µM) | relative viability (CX-5461 + Phenformin; first compound 0.03162 µM) | relative viability (CX-5461 + Phenformin; first compound 0.1 µM) | relative viability (CX-5461 + Phenformin; first compound 0.3162 µM) | relative viability (CX-5461 + Phenformin; first compound 1 µM) | relative viability (CX-5461 + Linsitinib; first compound 0.01 µM) | relative viability (CX-5461 + Linsitinib; first compound 0.03162 µM) | relative viability (CX-5461 + Linsitinib; first compound 0.1 µM) | relative viability (CX-5461 + Linsitinib; first compound 0.3162 µM) | relative viability (CX-5461 + Linsitinib; first compound 1 µM) |
| --- | --- | --- | --- | --- | --- | --- | --- | --- | --- | --- | --- | --- | --- | --- | --- | --- | --- | --- | --- | --- |
| NCI-H2228 | 0.102 | 0.169 | 0.109 | 0.128 | 0.145 | 0.629 | 0.428 | 0.361 | 0.272 | 0.13 | 0.327 | 0.204 | 0.184 | 0.26 | 0.0912 | 0.736 | 0.975 | 0.416 | 0.718 | 0.282 |
| NCI-H647 | 0.303 | 0.261 | 0.166 | 0.111 | 0.0881 | 0.742 | 0.565 | 0.669 | 0.566 | 0.467 | 0.518 | 0.575 | 0.401 | 0.364 | 0.24 | 1.15 | 1.25 | 1.1 | 1.25 | 0.442 |
| LK-2 | 0.195 | 0.194 | 0.184 | 0.195 | 0.167 | 0.268 | 0.173 | 0.185 | 0.162 | 0.179 | 0.611 | 0.443 | 0.386 |  | 0.111 | 0.363 | 0.715 | 0.598 |  | 0.515 |
| NCI-H358 | 0.292 | 0.286 | 0.305 | 0.322 | 0.167 | 0.621 | 0.939 | 0.69 | 0.592 | 0.194 | 0.349 | 0.347 | 0.316 | 0.236 | 0.148 | 0.817 | 0.748 | 0.345 | 0.314 | 0.304 |
| NCI-H2085 | 0.498 | 0.41 | 0.409 | 0.274 | 0.264 | 0.845 | 0.75 | 0.625 | 0.557 | 0.557 | 0.768 | 0.691 | 0.704 | 0.658 | 0.587 | 0.923 | 1.03 | 0.911 | 0.952 | 0.864 |
| NCI-H727 | 0.344 | 0.295 | 0.371 | 0.191 | 0.302 | 0.59 | 0.866 | 0.622 | 0.58 | 0.584 | 0.602 | 0.601 | 0.974 | 0.464 | 0.617 | 0.351 | 0.276 | 0.321 | 0.342 | 0.129 |
| NCI-H441 | 0.279 | 0.409 | 0.234 | 0.214 | 0.2 | 0.696 | 0.659 | 0.607 | 0.534 | 0.408 | 0.758 | 1.05 | 0.779 | 0.86 | 0.305 | 0.567 | 0.651 | 0.487 | 0.288 | 0.629 |
| LOU-NH91 | 0.348 | 0.334 | 0.32 | 0.176 | 0.213 | 0.756 | 0.728 | 0.714 |  | 0.727 | 0.801 | 0.7 | 0.697 |  | 0.594 | 1 | 1.04 | 0.999 | 0.715 | 0.842 |
| NCI-H3122 | 0.0711 | 0.103 | 0.0803 | 0.0918 | 0.0652 | 1.07 | 0.882 | 0.938 | 0.672 | 0.668 | 0.385 | 0.343 | 0.316 | 0.378 | 0.248 | 0.99 | 1.05 | 0.994 | 1.1 | 0.973 |
| NCI-H460 | 0.0305 | 0.0328 | 0.0332 | 0.0223 | 0.0144 | 0.573 | 0.541 |  | 0.684 | 0.0247 | 0.545 | 0.483 |  | 0.483 | 0.0194 | 1.02 | 0.713 | 0.133 | 0.537 | 0.0178 |
| NCI-H650 | 0.791 | 0.873 | 0.59 | 0.381 | 0.167 | 0.578 | 0.558 | 0.483 | 0.536 | 0.352 | 0.486 | 0.441 | 0.429 | 0.487 | 0.386 | 0.955 | 0.999 | 0.697 | 0.571 | 0.373 |
| NCI-H661 | 0.971 | 0.946 | 0.364 | 0.254 | 0.217 | 0.654 | 0.698 | 0.615 | 0.834 | 0.387 | 0.285 | 0.286 | 0.316 | 0.259 | 0.23 | 0.593 | 0.721 | 0.87 |  | 0.433 |
| NCI-H1944 | 0.727 | 0.818 | 0.669 | 0.634 | 0.17 | 0.49 | 0.446 | 0.377 | 0.252 | 0.259 | 0.228 | 0.193 | 0.181 | 0.159 | 0.122 | 1.27 | 1.26 | 1.05 |  | 1.18 |
| NCI-H1734 | 0.201 | 0.181 | 0.2 | 0.147 | 0.143 | 0.586 | 0.646 | 0.706 | 0.499 | 0.445 | 0.411 | 0.376 | 0.374 | 0.306 | 0.218 | 1.01 | 0.97 | 0.901 | 0.772 | 0.868 |
| LXF-289 | 0.796 | 0.66 | 0.564 | 0.508 | 0.192 | 0.755 | 0.924 | 0.892 | 0.416 | 0.581 | 0.523 | 0.526 | 0.521 | 0.255 | 0.276 | 0.963 | 1 | 1.04 | 0.903 | 0.949 |
| H3255 | 0.776 | 0.845 | 0.778 | 0.293 | 0.285 | 0.568 | 0.542 | 0.559 | 0.543 | 0.568 | 0.373 | 0.367 | 0.374 | 0.301 | 0.338 | 1.04 | 1.01 | 0.935 | 0.735 | 0.988 |
